Data set [1] in a line: UGTs/CYPs dual-activity mouse liver microsomal stability. The format is in vitro ADME. The following applies: for UGTs/CYPs dual-activity mouse liver microsomal stability: 5 μM, NADPH + UDP-GlcUA; for half-life at 1 h, 5 µM / microsomal CLint at 1 h, 5 µM / half-life at 5 µM: CD-1, mouse liver microsomes; for half-life at 1 h, 5 µM / half-life at 5 µM: 0.693/k, read-out: in vitro half-life; for microsomal CLint at 1 h, 5 µM: read-out: microsomal intrinsic clearance (CLint,micr). On the procedure: Initially, the chemical stability of the compounds was studied in phosphate buffer at pH 7.4. […] The same stability was evident in mouse plasma at two different time points (1 and 2 h, Table 2). In addition, all the compounds were subjected to an in vitro microsomal stability assay. In this assay, the metabolism of the parent compound over time (up to 60 min) was measured by liquid chromatography–mass spectrometry (LC–MS) in the presence of CYP450 and UGTs (uridine 5′-diphospho-glucuronosyltransferases) microsomal systems. The measurement of hepatic metabolism also allowed the determination of different pharmacokinetic parameters such as in vitro intrinsic clearance (CLint,micr) and to predict in vivo intrinsic clearance (CLint). The predicted in vivo CLint values were calculated using a microsomal protein value of 45 mg per gram of liver tissue and 87 g of liver per kg of body weight. The microsomal stability assay was validated using testosterone (low stability in the presence of NADPH), 2-naphthol (low stability using NADPH and UDPGA cofactors), and 3-(α-acetonylbenzyl)-4-hydroxy coumarin (high stability in dual-activity assay) as positive controls. To detect nonspecific protein binding or heat instability, the compounds were incubated without cofactors (negative control). Moreover, since microsomal concentrations > 2 mg mL^–1 are not recommended due to a potential negative impact of increased nonspecific binding on the rate of metabolism,[25] in our assay we used a low concentration of liver microsomes (0.5 mg mL^–1).
For microsomal stability assay, 25 μL of 5 mg mL^–1 mouse (CD-1) microsomes (Thermo Fisher Scientific, Bremen, Germany) were preincubated for 5 min at 37 °C with alamethicin and 2.5 μL of each sample (5 μM). The reaction started by adding a 50 μL mixture of 10 mM NADPH and UDP-GlcUA as cofactors (1:1 v/v) and was carried out at 37 °C for 15, 30, and 60 min in a Thermomixer comfort. The reaction was stopped by the addition of 200 μL of ice-cold methanol containing IS, and then samples were centrifuged at 14,680 rpm at 25 °C for 7 min (Eppendorf microcentrifuge 5424, Hamburg, Germany). The supernatants were collected and injected in LC-MS.
The control at 0 min was obtained by the addition of the organic solvent immediately after incubation with microsomes. Testosterone, 2-naphthol, and 3-(α-acetonylbenzyl)-4-hydroxy coumarin were used as the positive controls, while the negative control was prepared by incubation for up to 60 min without cofactors. The extent of metabolism is expressed as a percentage of the parent compound turnover. All experiments were performed in triplicate.

A short description of data set [2]: In vivo pharmacokinetic profile in mice after i.p. administration. To be noted: mouse, plasma, ip, 10 mg/kg i.p., single dose. On the procedure: For analysis of plasma levels of 28, mice (6 per group) received 10 mg/kg i.p. injection in a volume of 500 μL of DMSO 2% in saline. After selected time points, the mice were sacrificed (CO2 atmosphere) and blood (approximately 0.7–0.9 mL) was collected by intracardiac puncture using citrate as an anticoagulant. Then, plasma was obtained by centrifugation at 800g at 4 °C for 10 min and immediately frozen at −80 °C. The analyses were performed using a Shimadzu Nexera UHPLC (Kyoto, Japan) consisting of two LC-30AD pumps, a SIL-30AC autosampler, a CTO-20AC column oven, and a CBM-20A controller. Chromatographic conditions have previously been reported in the Chemical and Metabolic Stability section. The chromatographic system was coupled online to a triple quadrupole LCMS-8050 (Shimadzu) equipped with an electrospray ionization (ESI) source operating in positive mode. Quantification was performed in scheduled multiple reaction monitoring (MRM) mode. The transitions (Table S2) were m/z 456 > 149.2 (quantifier ion), 456 > 166.2 (qualifier ion) for compound 28, and m/z 458 > 149.2 (quantifier ion), 458 > 166.2 (qualifier ion) for IS. Dwell time, interface temperature, DL temperature, and heat block temperature were set to 100 ms, 300, 250, and 350 °C, respectively. Nebulizing gas, heating gas, and drying gas flow were set to 3, 10, and 10 L min^–1, respectively. All of the data was collected in the centroid mode and acquired and processed using Lab Solution workstation software. Stock solutions of 28 and IS were prepared in DMSO (1 mg mL^–1). The standards of 28 were prepared by dilution of the stock solution with methanol to obtain the working stock solutions in plasma of the following concentrations: 0.2, 0.5, 1, 5, 10, 20, and 50 ng mL^–1 for calibration curve. Calibration standards were prepared by spiking 100 μL of mouse plasma with a suitable working solution of 28 and IS to obtain a final concentration of 5 ng mL^–1 of the IS in each sample. For the extraction of 28 from mouse plasma, the method of protein precipitation was employed. Briefly, the frozen plasma samples were thawed at room temperature. 200 μL of ice-cold acetonitrile containing IS was added to 100 μL of plasma. The extraction was performed by vortex mixing for 5 min, followed by centrifugation for 10 min at 14,600 rpm at 25 °C. The supernatants were collected, filtered by […] RC-membranes, and then injected in UHPLC-MS/MS. […] The maximum concentration (Cmax) and time to reach Cmax (Tmax) were determined from the plasma concentration versus time data. The area under the plasma concentration–time curve from time 0 to infinity concentration (AUC0–∞) was determined using the linear trapezoidal method. The elimination half-life (T1/2) was calculated using ln(2)/ke.

The structures appear in SMILES notation.

Take `O=C(NCC12C[C@H]3C[C@@H](C1)C[C@@H](C2)C3)Nc1ccc2c(ccn2C(=O)c2ccc(F)cc2)c1` [Compound 36, 1-(((3R,5R,7R)-Adamantan-1-yl)methyl)-3-(1-(4-fluorobenzoyl)-1H-indol-5-yl)urea]: the “UGTs/CYPs dual-activity mouse liver microsomal stability” value worked out at 20.4 ± 1.8% in data set [1] (0.25 h, 0.5 mg mL–1 microsomes); 11.9 ± 0.6% in data set [1] (0.5 h); 2.4 ± 0.4% in data set [1] (1.0 h). In data set [1], the half-life at 1 h, 5 µM is 11.8 min. Also, the intrinsic metabolic clearance (microsomal CLint) at 1 h, 5 µM in data set [1] is 118 µL/min/mg.
With `O=C(NCC12C[C@H]3C[C@@H](C1)C[C@@H](C2)C3)Nc1ccc2c(ccn2CCc2ccc(F)cc2)c1` [Compound 30, 1-(((3R,5R,7R)-Adamantan-1-yl)methyl)-3-(1-(4-fluorophenethyl)-1H-indol-5-yl)urea], the “UGTs/CYPs dual-activity mouse liver microsomal stability” value in data set [1] (0.25 h, 0.5 mg mL–1 microsomes) is reported as 16.6 ± 1.4%; in data set [1] (0.5 h) it was 9.3 ± 0.6%; in data set [1] (1.0 h), 5.7 ± 0.2%. In addition, in data set [1], the half-life at 5 µM worked out at 16 min. The microsomal CLint at 1 h, 5 µM in data set [1] was found to be 86.6 µL/min/mg.
In the case of `O=C(Nc1ccc2c(c1)CCN2Cc1ccc(F)cc1)NC12C[C@H]3C[C@@H](C1)C[C@@H](C2)C3` [Compound 6, 1-((3S,5S,7S)-Adamantan-1-yl)-3-(1-(4-fluorobenzyl)indolin-5-yl)urea], the “UGTs/CYPs dual-activity mouse liver microsomal stability” value in data set [1] (0.25 h, 0.5 mg mL–1 microsomes) came out at 21.3 ± 0.9%; in data set [1] (0.5 h) it was 10.9 ± 0.1%; in data set [1] (1.0 h), 10.6 ± 0.1%. Moreover, the half-life at 5 µM in data set [1] is 20.4 min. Further, the microsomal CLint at 1 h, 5 µM in data set [1] was 67.8 µL/min/mg.
As to `O=C(NCC12C[C@H]3C[C@@H](C1)C[C@@H](C2)C3)Nc1ccc2c(ccn2Cc2ccc(F)cc2)c1` [Compound 27, 1-(((3R,5R,7R)-Adamantan-1-yl)methyl)-3-(1-(4-fluorobenzyl)-1H-indol-5-yl)urea], the “UGTs/CYPs dual-activity mouse liver microsomal stability” value turned out to be 8.4 ± 0.3% in data set [1] (0.25 h, 0.5 mg mL–1 microsomes); 3.2 ± 1.0% in data set [1] (0.5 h); 2.1 ± 0.7% in data set [1] (1.0 h). For the same compound, in data set [1], the half-life at 5 µM is 11.9 min. The intrinsic metabolic clearance (microsomal CLint) at 1 h, 5 µM in data set [1] was found to be 117 µL/min/mg.
With `CC(C)c1ccc(Cn2ccc3cc(NC(=O)NCC45C[C@H]6C[C@@H](C4)C[C@@H](C5)C6)ccc32)cc1` [Compound 28, 1-(((3R,5R,7R)-Adamantan-1-yl)methyl)-3-(1-(4-isopropylbenzyl)-1H-indol-5-yl)urea], in data set [2], the AUC(0-inf) at 24 h stood at 29.9 ng·h/mL, the highest level (Cmax at 24 h) was 4.17 ng/mL, the Tmax at 24 h was 2 h and the half-life at 24 h is 456 min. Besides, the “UGTs/CYPs dual-activity mouse liver microsomal stability” value in data set [1] (0.25 h, 0.5 mg mL–1 microsomes) is given as 91.5 ± 2.2%. In addition, the “UGTs/CYPs dual-activity mouse liver microsomal stability” value in data set [1] (0.5 h) was found to be 69.8 ± 2.9%. Further, the “UGTs/CYPs dual-activity mouse liver microsomal stability” value in data set [1] (1.0 h) is on record as 53.1 ± 2.8%. In data set [1], the half-life at 1 h, 5 µM was found to be 62.9 min and the intrinsic clearance (microsomal CLint) at 1 h, 5 µM stood at 22 µL/min/mg.

Source of the values: article PMC10350924, “Design, Synthesis, and Pharmacological Characterization of a Potent Soluble Epoxide Hydrolase Inhibitor for the Treatment of Acute Pancreatitis” (Journal of Medicinal Chemistry, 2023).
